Experimental data published in patent publication US10988523B2, “Modified lipidated Relaxin B chain peptides and their therapeutic use” (Sanofi, priority 2018, dated 2021).
*1 amine or outer side, *2 acyl side, *3 side chain or, on linkers, in order; H or OH if unused. Where a SMILES comes first, the peptide text is derived from it. Side-chain parts run from the residue outwards. [ ]: non-standard residue; d: D form. The star is where a group is joined. PEG12 = NCCOCCOCCOCCOCCOCCOCCOCCOCCOCCOCCOCCOCCC(=O)O; γGlu = O=C(O)[C@H](CCC(=O)[*:2])N[*:1]; 1Nal = N[C@@H](Cc1cccc2ccccc12)C(=O)O; Stearoyl = CCCCCCCCCCCCCCCCCC(=O)*; Palmitoyl = CCCCCCCCCCCCCCCC(=O)*; Nle = CCCC[C@H](N)C(=O)O; AEEA = NCCOCCOCC(=O)O; Aib = CC(C)(N)C(=O)O

Target: T1, RXFP1 (Homo sapiens, UniProt Q9HBX9)
T1 construct: OVCAR5 cells expressing endogenous RXFP1; endogenous in cells; host or cells: OVCAR5 cells
T1 sequence (Q9HBX9 1-757): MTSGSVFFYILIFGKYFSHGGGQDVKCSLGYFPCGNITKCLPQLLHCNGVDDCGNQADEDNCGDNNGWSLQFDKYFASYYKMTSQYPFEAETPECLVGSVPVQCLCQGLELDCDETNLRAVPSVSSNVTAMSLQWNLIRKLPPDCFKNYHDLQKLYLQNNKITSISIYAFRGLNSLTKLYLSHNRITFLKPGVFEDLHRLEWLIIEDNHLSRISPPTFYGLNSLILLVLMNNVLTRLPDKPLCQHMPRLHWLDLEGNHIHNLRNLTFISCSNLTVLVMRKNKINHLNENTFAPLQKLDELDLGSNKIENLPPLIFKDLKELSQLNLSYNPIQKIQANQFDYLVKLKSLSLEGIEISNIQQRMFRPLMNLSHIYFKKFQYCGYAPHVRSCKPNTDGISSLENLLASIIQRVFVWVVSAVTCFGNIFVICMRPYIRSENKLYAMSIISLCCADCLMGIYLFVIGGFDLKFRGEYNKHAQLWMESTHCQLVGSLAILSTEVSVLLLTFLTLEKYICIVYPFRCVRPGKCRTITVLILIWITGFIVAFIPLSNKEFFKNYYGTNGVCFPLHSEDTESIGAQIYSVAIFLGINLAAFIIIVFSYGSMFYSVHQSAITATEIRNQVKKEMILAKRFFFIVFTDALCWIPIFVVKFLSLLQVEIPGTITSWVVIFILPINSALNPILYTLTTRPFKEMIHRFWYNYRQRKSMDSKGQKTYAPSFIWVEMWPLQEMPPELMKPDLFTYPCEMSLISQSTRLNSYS
Assay: OVCAR5 cAMP assay (HTRF), RXFP1 agonist activity
Assay type: cell-based
Details: for EC50: OVCAR5 cells, cAMP HTRF, read-out: EC50 (nM), OVCAR 5 cells (cAMP); for Emax: OVCAR-5, maximal cAMP relative to H2-relaxin maximum (100%), read-out: EMax, OVCAR 5 cells (cAMP)
From the text: OVCAR5 cells expressing endogenous RXFP1 were used to test RXP1 agonist properties of peptides of the invention, and in particular of the peptides of sequence SEQ ID NO: 1-193.
Since RXFP1 is a Gs coupled GPCR, cAMP was used as readout of RXFP1 activation.
Isobutyl Methyl Xanthine (IBMX) was used to inhibit phosphodiesterase activity facilitating cAMP measurements. HTRF (Homogenous Time Resolved Fluorescence) technology was used to detect cAMP due to its great sensitivity.
In summary, OVCAR5 were grown in regular medium (RPMI) containing 10% fetal calf serum (FCS) and 1% antibiotics (penicillin/streptomycin).
Before the experiments, cells were detached with accutase and incubated for 40 minutes at 37° C. with 1 mM (3-isobutyl-1-methylxanthine) IBMX.
Cells were then distributed in 384 black well plates containing increasing concentrations of the different peptides in a fix volume of medium (without FCS).
After an incubation of 30 min at 37° C. in an humid incubator in 5% CO2, the reaction was stopped by adding a fixed volume of a solution containing a lysis buffer and cAMP-D2 (cAMP labeled with the dye d2) and the anti cAMP antibody linked to Europium and used for cAMP detection.
Readout of the experiment were performed on a fluorimeter allowing HTRF measurement. Activation curves were generated by plotting the intracellular value of cAMP versus log 10 of the compound concentration.
The 50% activation concentration (EC50) was calculated by nonlinear regression using the sigmoidal dose-response (variable slope) equation with Prism 5 software.
Emax % is determined as the maximal intracellular value of cAMP for test compound (upper limit of cAMP vs concentration curve) divided by the maximal intracellular value of cAMP for H2-relaxin determined in the same test occasion multiplied by 100. Emax %=100×[cAMPtest cpd]/[cAMPH2-RlX]

Row | EC50 [nM] | Emax [%] | Compound
1 | 1.04 | 73 | CCCCCCCCCCCCCCCCCC(=O)N[C@@H](CCC(=O)N[C@@H](CCC(=O)N[C@@H](CCC(=O)NCCOCCOCC(=O)NCCOCCOCC(=O)NCCOCCOCC(=O)NCCCC[C@H](NC(=O)[C@H](CCCCNC(C)=O)NC(=O)[C@H](CCCCN)NC(=O)[C@H](CCCNC(=N)N)NC(=O)C(C)(C)NC(=O)[C@H](CO)NC(=O)[C@H](Cc1ccc(O)cc1)NC(=O)[C@@H](NC(=O)[C@H](CO)NC(=O)[C@H](CCCC)NC(=O)CNC(=O)[C@H](CCC(=O)O)NC(=O)C(C)(C)NC(=O)C(C)(C)NC(=O)[C@@H](NC(=O)[C@H](CCCCNC(C)=O)NC(=O)[C@H](C)NC(=O)[C@H](CCCNC(=N)N)NC(=O)[C@@H](NC(=O)[C@H](CCCCN)NC(=O)[C@H](CCC(=O)O)NC(=O)[C@H](CCCNC(=N)N)NC(=O)CNC(=O)[C@H](CCC(=O)O)NC(=O)[C@H](CC(C)C)NC(C)=O)C(C)C)[C@@H](C)CC)[C@@H](C)O)C(N)=O)C(=O)O)C(=O)O)C(=O)O [compound 78] (Ac-LEGREKVRAK(Ac)I[Aib][Aib]EG[Nle]STYS[Aib]RKK(Ac)K([AEEA-AEEA-AEEA-γGlu-γGlu-γGlu-Stearoyl])-NH2)
2 | – | 85 | CCCCCCCCCCCCCCCC(=O)N[C@@H](CCC(=O)N[C@@H](CCC(=O)N[C@@H](CCC(=O)NCCOCCOCC(=O)NCCOCCOCC(=O)NCCCC[C@H](NC(=O)[C@H](CCCCN)NC(=O)[C@H](CCCNC(=N)N)NC(=O)C(C)(C)NC(=O)[C@H](CO)NC(=O)[C@H](Cc1c[nH]c2ccccc12)NC(=O)[C@@H](NC(=O)[C@H](CO)NC(=O)[C@H](CCCC)NC(=O)CNC(=O)[C@H](CCC(=O)O)NC(=O)C(C)(C)NC(=O)C(C)(C)NC(=O)[C@@H](NC(=O)[C@H](CCCCNC(C)=O)NC(=O)[C@H](C)NC(=O)[C@H](CCCNC(=N)N)NC(=O)[C@@H](NC(=O)[C@H](CCCCN)NC(=O)[C@H](CCC(=O)O)NC(=O)[C@H](CCCNC(=N)N)NC(=O)CNC(=O)[C@H](CCC(=O)O)NC(=O)[C@H](CC(C)C)NC(C)=O)C(C)C)[C@@H](C)CC)[C@@H](C)O)C(N)=O)C(=O)O)C(=O)O)C(=O)O [compound 59] (Ac-LEGREKVRAK(Ac)I[Aib][Aib]EG[Nle]STWS[Aib]RKK([AEEA-AEEA-γGlu-γGlu-γGlu-Palmitoyl])-NH2)
3 | 0.17 | 93 | CCCCCCCCCCCCCCCCCC(=O)N[C@@H](CCC(=O)N[C@@H](CCC(=O)N[C@@H](CCC(=O)N[C@@H](CCC(=O)NCCOCCOCC(=O)NCCOCCOCC(=O)NCCOCCOCC(=O)NCCCC[C@H](NC(=O)[C@H](CCCCN)NC(=O)[C@H](CCCCN)NC(=O)[C@H](CCCNC(=N)N)NC(=O)C(C)(C)NC(=O)[C@H](CO)NC(=O)[C@H](Cc1c[nH]c2ccccc12)NC(=O)[C@@H](NC(=O)[C@H](CO)NC(=O)[C@H](CCC(N)=O)NC(=O)CNC(=O)[C@H](CCC(=O)O)NC(=O)C(C)(C)NC(=O)C(C)(C)NC(=O)[C@@H](NC(=O)[C@H](CCCCNC(C)=O)NC(=O)[C@H](C)NC(=O)[C@H](CCCNC(=N)N)NC(=O)[C@@H](NC(=O)[C@H](CCCCN)NC(=O)[C@H](CCC(=O)O)NC(=O)[C@H](CCCNC(=N)N)NC(=O)CNC(=O)[C@H](CCC(=O)O)NC(=O)[C@H](CC(C)C)NC(C)=O)C(C)C)[C@@H](C)CC)[C@@H](C)O)C(N)=O)C(=O)O)C(=O)O)C(=O)O)C(=O)O [compound 115] (Ac-LEGREKVRAK(Ac)I[Aib][Aib]EGQSTWS[Aib]RKKK([AEEA-AEEA-AEEA-γGlu-γGlu-γGlu-γGlu-Stearoyl])-NH2)
4 | – | 68 | CCCCCCCCCCCCCCCCCC(=O)N[C@@H](CCC(=O)N[C@@H](CCC(=O)N[C@@H](CCC(=O)NCCOCCOCC(=O)NCCOCCOCC(=O)NCCOCCOCC(=O)NCCCC[C@H](NC(=O)[C@H](CCCCN)NC(=O)[C@H](CCCNC(=N)N)NC(=O)C(C)(C)NC(=O)[C@H](CO)NC(=O)[C@H](Cc1cccc2ccccc12)NC(=O)[C@@H](NC(=O)[C@H](CO)NC(=O)[C@H](CCCC)NC(=O)CNC(=O)[C@H](CCC(=O)O)NC(=O)C(C)(C)NC(=O)C(C)(C)NC(=O)[C@@H](NC(=O)[C@H](CCCCNC(C)=O)NC(=O)C(C)(C)NC(=O)[C@H](CCCNC(=N)N)NC(=O)[C@@H](NC(=O)[C@H](CCCCN)NC(=O)[C@H](CCC(=O)O)NC(=O)[C@H](CCCNC(=N)N)NC(=O)CNC(=O)[C@H](CCC(=O)O)NC(=O)[C@H](CC(C)C)NC(C)=O)C(C)C)[C@@H](C)CC)[C@@H](C)O)C(N)=O)C(=O)O)C(=O)O)C(=O)O [compound 80] (Ac-LEGREKVR[Aib]K(Ac)I[Aib][Aib]EG[Nle]ST[1Nal]S[Aib]RKK([AEEA-AEEA-AEEA-γGlu-γGlu-γGlu-Stearoyl])-NH2)

Second part, the compound before the results:

Row | Compound | EC50 [nM] | Emax [%]
5 | CCCCCCCCCCCCCCCCCC(=O)N[C@@H](CCC(=O)N[C@@H](CCC(=O)N[C@@H](CCC(=O)NCCCC[C@H](NC(=O)CCOCCOCCOCCOCCOCCOCCOCCOCCOCCOCCOCCOCCNC(=O)[C@H](CCCCN)NC(=O)[C@H](CCCNC(=N)N)NC(=O)C(C)(C)NC(=O)[C@H](CO)NC(=O)[C@H](Cc1c[nH]c2ccccc12)NC(=O)[C@@H](NC(=O)[C@H](CO)NC(=O)[C@H](CCCC)NC(=O)CNC(=O)[C@H](CCC(=O)O)NC(=O)C(C)(C)NC(=O)C(C)(C)NC(=O)[C@@H](NC(=O)[C@H](CCCCNC(C)=O)NC(=O)[C@H](C)NC(=O)[C@H](CCCNC(=N)N)NC(=O)[C@@H](NC(=O)[C@H](CCCCN)NC(=O)[C@H](CCC(=O)O)NC(=O)[C@H](CCCNC(=N)N)NC(=O)CNC(=O)[C@H](CCC(=O)O)NC(=O)[C@H](CC(C)C)NC(C)=O)C(C)C)[C@@H](C)CC)[C@@H](C)O)C(N)=O)C(=O)O)C(=O)O)C(=O)O [compound 34] (Ac-LEGREKVRAK(Ac)I[Aib][Aib]EG[Nle]STWS[Aib]RK[PEG12]K([γGlu-γGlu-γGlu-Stearoyl])-NH2) | – | 95
6 | CCCCCCCCCCCCCCCC(=O)NCCCC[C@H](NC(=O)[C@H](CCCCN)NC(=O)[C@H](CCCNC(=N)N)NC(=O)C(C)(C)NC(=O)[C@H](CO)NC(=O)[C@H](Cc1c[nH]c2ccccc12)NC(=O)[C@@H](NC(=O)[C@H](CO)NC(=O)[C@H](CCCC)NC(=O)CNC(=O)[C@H](CCC(=O)O)NC(=O)C(C)(C)NC(=O)C(C)(C)NC(=O)[C@@H](NC(=O)[C@H](C)NC(=O)[C@H](C)NC(=O)[C@H](CCCNC(=N)N)NC(=O)[C@@H](NC(=O)[C@H](CCCCN)NC(=O)[C@H](CCC(=O)O)NC(=O)[C@H](CCCNC(=N)N)NC(=O)CNC(=O)[C@H](CCC(=O)O)NC(=O)[C@H](CC(C)C)NC(C)=O)C(C)C)[C@@H](C)CC)[C@@H](C)O)C(N)=O [compound 1] (Ac-LEGREKVRAAI[Aib][Aib]EG[Nle]STWS[Aib]RKK(Palmitoyl)-NH2) | – | 85
7 | CCCCCCCCCCCCCCCC(=O)N[C@@H](CCC(=O)N[C@@H](CCC(=O)N[C@@H](CCC(=O)NCCOCCOCC(=O)NCCOCCOCC(=O)NCCCC[C@H](NC(=O)COCCOCCNC(=O)[C@H](CCCCN)NC(=O)[C@H](CCCNC(=N)N)NC(=O)C(C)(C)NC(=O)[C@H](CO)NC(=O)[C@H](Cc1c[nH]c2ccccc12)NC(=O)[C@@H](NC(=O)[C@H](CO)NC(=O)[C@H](CCCC)NC(=O)CNC(=O)[C@H](CCC(=O)O)NC(=O)C(C)(C)NC(=O)C(C)(C)NC(=O)[C@@H](NC(=O)[C@H](CCC(N)=O)NC(=O)[C@H](C)NC(=O)[C@H](CCCNC(=N)N)NC(=O)[C@@H](NC(=O)[C@H](CCCCN)NC(=O)[C@H](CCC(=O)O)NC(=O)[C@H](CCCNC(=N)N)NC(=O)CNC(=O)[C@H](CCC(=O)O)NC(=O)[C@H](CC(C)C)NC(C)=O)C(C)C)[C@@H](C)CC)[C@@H](C)O)C(N)=O)C(=O)O)C(=O)O)C(=O)O [compound 13] (Ac-LEGREKVRAQI[Aib][Aib]EG[Nle]STWS[Aib]RK[AEEA]K([AEEA-AEEA-γGlu-γGlu-γGlu-Palmitoyl])-NH2) | – | 81
